Publication PMC10914731, “Homo-BacPROTAC-induced degradation of ClpC1 as a strategy against drug-resistant mycobacteria” (Nature Communications, 2024)
In brackets after ≈: the same amount, converted by molar mass. Several values for one entry are separate records, joined by “and”; a condition that tells them apart may be missing. Equal values may be shown once. Read-outs that look alike come from different tables or passages of the source. *1 amine or outer side, *2 acyl side, *3 side chain or, on linkers, in order; H or OH if unused. Where a SMILES comes first, the peptide text is derived from it. [ ]: non-standard residue; d: D form. X1 = C#CCn1cc(C[C@H](N[*:1])C(=O)[*:2])c2ccccc21; NMeLeu(5-OH,4R) = CN[C@@H](C[C@@H](C)CO)C(=O)O; NMeL = CN[C@@H](CC(C)C)C(=O)O

Tests used:
[1] = Hepatocyte stability, mice; type: in vitro ADME; settings: clearance in hepatocytes
Method: (§1) Cryopreserved hepatocytes are incubated in an appropriate buffer system containing 50% species serum. Following an acclimation period (15–30 min) in an incubator (37 °C, 5−10% CO2, 85–95% humidity) the test compound is added to the hepatocyte suspension (pH 7.4, typical cell density of about 1 million cells/mL; final concentration of test compound is 1 µM, final DMSO concentration <0.05% v/v). The cells are incubated for up to 6 h and samples are taken at 6 different time points. Samples are then quenched with acetonitrile and pelleted by centrifugation. The remaining amount of parent compound in the supernatants is then analysed by HPLC-MS/MS. Clearance is calculated from compound half-lives using the well-stirred liver model and is converted to clearance stated as % of the liver blood flow (% Qh).

[2] = type: in vitro ADME, Rat
Method: (§2) The kinetics of compound degradation in liver microsomes is assessed in an assay with 1 µmol/l of compound and 0.5 mg/ml liver microsomes in a medium of 100 mM Tris-HCl pH 7.5, 6.5 mM MgCl2 and 1 mM NADPH at 37 °C. The reaction is stopped at multiple time points by adding acetonitrile. After centrifugation, the compound concentration is measured in the supernatants by high-performance liquid chromatography (HPLC) tandem mass spectrometry (MS/MS). The results are fitted to a first-order decay and the half-lives are converted to clearance (stated as % of the liver blood flow (%Qh)) using the well-stirred liver model.

[3] = Microsomal stability, human; type: in vitro ADME
Method: as §2

[4] = biological target: ClpC1 NTD protein (M. tuberculosis) (Mycobacterium tuberculosis, UniProt P9WPC9); assay: biochemical; type: binding
Chain of ClpC1 NTD protein (M. tuberculosis) (P9WPC9 1-156, looked up, natural form): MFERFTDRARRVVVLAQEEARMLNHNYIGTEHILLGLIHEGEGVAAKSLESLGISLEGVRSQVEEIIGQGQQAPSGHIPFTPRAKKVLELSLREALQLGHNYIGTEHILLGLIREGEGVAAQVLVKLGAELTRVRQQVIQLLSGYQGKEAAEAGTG

[5] = type: in vitro ADME, Rat; remark: listed apart in the source
Method: as §1

Caco-2 monolayers = assay: in vitro
Description: (§3) Supplementary Table 1. Structure-Activity Relationships part 1 (SPR, Caco-2) […]
(§4) SPR. Mean values ± standard deviation. Footnotes indicate the number of measurements performed for the respective compound: a) n = […]
(§5) [5] Permeability across Caco-2 monolayers in P(A−B): apical to basolateral and P(B−A): basolateral to apical direction (values reported in 10-
(§6) 6 cm s-1); efflux ratio = P(B−A)/P(A−B); Int. perm: mean value of P(A−B) and P(B−A). […] Influence of Trp-Nα methylation on P(A-B) and efflux
(§7) ratio. Bold: positive influence.

in vitro = settings: human; for Papp A→B: apical to basolateral; for Papp B→A: basolateral to apical
Description: as §3, §4, §5, §6, §7

[6] = type: in vitro ADME, Human
Method: as §1

[7] = type: in vitro ADME, Mice
Method: as §2

Mtb # 11291 = assay: microbe, parasite or virus in culture; type: cell-based; settings: for MIC: read-out: MIC Mtb # 11291
Mtb ATCC 35825 = assay: microbe, parasite or virus in culture; type: cell-based
Mtb # 8673 = assay: microbe, parasite or virus in culture; type: cell-based
[8] = Mycobacterium tuberculosis, mean, n = 2 well replicates
[9] = Mycobacterium tuberculosis, single well replicates
[10] = Mycobacterium tuberculosis, ATCC35825, mean, n = 2 well replicates
[11] = Mycobacterium tuberculosis, ATCC35825, single well replicates

With `C#CCn1cc(C[C@@H]2NC(=O)[C@H](C(C)C)NC(=O)[C@H](CC(C)C)N(C)C(=O)[C@H](C(C)C)NC(=O)[C@H](Cc3ccccc3)NC(=O)[C@H](C)NC(=O)[C@H](C[C@@H](C)CO)N(C)C2=O)c2ccccc21` [SI-72] (cyclo(AFV[NMeL]V[X1][NMeLeu(5-OH,4R)])) the “Hepatocyte Mice” value [1] was 71 %Qh, the “Microsomal Stability Rat QH” value ([2]; Rat) was 87.300% and the “Microsomal Stability Rat” value ([2]; clearance in microsomes) was 87 %Qh. For the same compound, the “Microsomal Stability Human QH” value ([3]; Human) was greater than 88.400%, the “Microsomal Stability Human” value ([3]; clearance in microsomes) was greater than 88 %Qh and the Kd ([4]; SPR (Supplementary Table 1), read-out: KD ClpC1-NTD Mean ± SD) was 14 ± 6 nM. The “koff ClpC1-NTD” value ([4]; SPR, single independent measurements) was 0.05 s⁻¹, the Kd ([4]; SPR, single independent measurements, read-out: KD ClpC1-NTD) was 17.7 nM and 9.9 nM and the koff ([4]; SPR, single independent measurements, read-out: koff ClpC1-NTD) was 0.07 s⁻¹. The “Hepatocyte Stability Rat QH” value ([5]; Rat) was 81.5% and 81.75%, the “Hepatocyte Rat” value ([5]; clearance in hepatocytes) was 82 %Qh and the “CACO permeability PEAB” value (Caco-2 monolayers; apical to basolateral) was 0.29000000000000003 ×10⁻⁶ cm/s. The “CACO permeability PEBA” value (Caco-2 monolayers; basolateral to apical) was 9.999999999999999 ×10⁻⁶ cm/s, the “Caco-2 Int. Perm” value (Caco-2 monolayers; mean value of P(A−B) and P(B−A)) was 6.4 10-6 cm s-1 and the efflux ratio (in vitro; Caco-2) was 61.4. For the same compound, the Papp A→B (in vitro; Caco-2, CACO permeability PEAB) was 0.17 ×10⁻⁶ cm/s, the Papp B→A (in vitro; Caco-2, CACO permeability PEBA) was 15 ×10⁻⁶ cm/s and the Papp A→B (in vitro; Caco-2, Caco-2 permeability P (A-B)) was 0.2 ×10⁻⁶ cm/s. For the same compound, the Papp B→A (in vitro; Caco-2, Caco-2 permeability P (B-A)) was 12.5 ×10⁻⁶ cm/s, the “Hepatocyte Stability Human QH” value ([6]; Human) was 23.35% and 19.57% and the “Hepatocyte Human” value ([6]; clearance in hepatocytes) was 12 %Qh. For the same compound, the “Microsomal Stability Mouse QH” value ([7]; Mouse) was greater than 88.400% and the “Microsomal Stability Mice” value ([7]; clearance in microsomes) was greater than 88 %Qh.
For `[H]/N=C(/N)N[C@H]1[C@H](O)[C@@H](O)[C@H](O[C@@H]2O[C@@H](C)[C@](O)(C=O)[C@H]2O[C@@H]2O[C@@H](CO)[C@H](O)[C@@H](O)[C@@H]2NC)[C@@H](N/C(N)=N\[H])[C@@H]1O` [Streptomycin], the MIC (Mtb # 11291; [8]) was 0.4 µM and 0.3 µg/mL, the MIC (Mtb # 11291; [9]) was 0.43 µM and 0.25 µg/mL and the “MIC Mtb # 11291” value (Mtb # 11291; single well replicates) was 0.25 µg/mL (≈ 0.43 µM). The MIC (Mtb # 11291; single well replicates) was 0.43 µM (≈ 0.25 µg/mL), the MIC (Mtb ATCC 35825; [10]) was 27.5 µM and 16 µg/mL and the MIC (Mtb ATCC 35825; [11]) was 16 µg/mL and 27.5 µM. The MIC (Mtb ATCC 35825; single well replicates) was 27.51 µM (≈ 16 µg/mL), the “MIC Mtb ATCC 35825” value (Mtb ATCC 35825; single well replicates) was 16 µg/mL (≈ 27.5 µM) and the MIC (Mtb # 8673; [8]) was 6.9 µM and 4 µg/mL. The MIC (Mtb # 8673; [9]) was 6.88 µM and 4 µg/mL, the MIC (Mtb # 8673; single well replicates) was 6.88 µM (≈ 4 µg/mL) and the “MIC Mtb # 8673” value (Mtb # 8673; single well replicates) was 4 µg/mL (≈ 6.88 µM).
In the case of `CC(=O)Nc1ccc(/C=N/NC(N)=S)cc1` [Thiacetazone], the MIC (Mtb # 11291; [8]) is reported as 4.2 µM and 1 µg/mL, the MIC (Mtb # 11291; [9]) is reported as 4.23 µM and 1 µg/mL and the “MIC Mtb # 11291” value (Mtb # 11291; single well replicates) is reported as 1 µg/mL (≈ 4.23 µM). The MIC (Mtb # 11291; single well replicates) was 4.23 µM (≈ 1 µg/mL), the MIC (Mtb ATCC 35825; [10]) was 4.2 µM and 1 µg/mL and the MIC (Mtb ATCC 35825; [11]) was 1 µg/mL and 4.23 µM. For the same compound, the MIC (Mtb ATCC 35825; single well replicates) was 4.23 µM (≈ 1 µg/mL), the “MIC Mtb ATCC 35825” value (Mtb ATCC 35825; single well replicates) was 1 µg/mL (≈ 4.23 µM) and the MIC (Mtb # 8673; [8]) was > 542 µM and > 128 µg/mL. The MIC (Mtb # 8673; [9]) was > 542 µM and > 128 µg/mL, the MIC (Mtb # 8673; single well replicates) was greater than 541.68 µM and the “MIC Mtb # 8673” value (Mtb # 8673; single well replicates) was greater than 128 µg/mL.
In the case of `Nc1ccc(C(=O)O)c(O)c1` [p-Aminosalicylic acid], the “MIC Mtb # 11291” value (Mtb # 11291; single well replicates) is reported as 1 µg/mL (≈ 6.53 µM), the MIC (Mtb # 11291; single well replicates) is reported as 6.53 µM (≈ 1 µg/mL) and the MIC (Mtb ATCC 35825; [10]) is reported as 104 µM and 16 µg/mL. The MIC (Mtb ATCC 35825; [11]) was 16 µg/mL and 104 µM, the MIC (Mtb ATCC 35825; single well replicates) was 104.48 µM (≈ 16 µg/mL) and the “MIC Mtb ATCC 35825” value (Mtb ATCC 35825; single well replicates) was 16 µg/mL (≈ 104 µM). The MIC (Mtb # 8673; [8]) was 6.5 µM and 1 µg/mL, the MIC (Mtb # 8673; [9]) was 6.53 µM and 1 µg/mL and the MIC (Mtb # 8673; single well replicates) was 6.53 µM (≈ 1 µg/mL). The “MIC Mtb # 8673” value (Mtb # 8673; single well replicates) was 1 µg/mL (≈ 6.53 µM).
